Where two headings read alike, the source gives them in different places.
Test system: Human PBMC
Test: Cytokine production upon human PBMC stimulation (ORN complexed to DOTAP, 16 h, ELISA)
Assay type: cell-based
Conditions: human PBMC, ORN complexed to DOTAP, 16 h; for EC50: full titration 2 μM to 0.9 nM; for IFN-alpha max activity / TNF-alpha max activity: mean max activity at 0.6 μM, 3-6 blood donors
Description: Human peripheral blood mononuclear cells (PBMCs) were isolated from healthy donors, plated, and stimulated in vitro with various test and control immunostimulatory agents for 16 hours. After 16 hours, the supernatants were collected and then analyzed by ELISA assay. N-U-R1-R2,-Containing Oligoribonucleotides were tested complexed to DOTAP and with full titration curves (7 concentrations), starting from 2 μM ORN complexed to 25 μg/ml DOTAP and with 1/3 dilution steps. Also included were certain negative controls, including medium alone and DOTAP (25 μg/ml culture well; “Liposomes”) alone. The control immunostimulatory agents included the imidazoquinoline R-848 (2 μM with 1/3 dilution steps and 7 concentrations) the reported ligand for TLR7, ORN having TLR8 motifs such as AU and AUU sequences (SEQ ID NO:13-SEQ ID NO:15) ORN having TLR7/8 motifs such as CU, GU and GUU sequences (SEQ ID NO:19-SEQ ID NO:23).
Human PBMC were stimulated with ORN complexed to DOTAP. After 16 hours supernatants were harvested and TNF-alpha and IFN-alpha levels were measured. Mean/Max activities at 0.6 μM of 3-6 blood donors and two individual experiments were determined. […] TLR8 and TLR7/8 ORN are divided by a red line.
Human PBMC were stimulated with ORN complexed to DOTAP. After 16 hours supernatants were harvested and IFN-alpha levels were measured. Mean/Max activities at 0.6 μM and EC50 of full titration curves (range: 2 μM to 0.9 nM) of 3-6 blood donors and two individual experiments were determined. […] Low EC50/high Max activity represents TLR7/8 ORN (FIG. 5a) whereas high EC50 and low Max activity represents TLR8 ORN (FIG. 5b).
The ORN sequences listed in Table 1 were tested for IFN-alpha and TNF-alpha production upon human PBMC stimulation. Human PBMC were stimulated for 16 h with the indicated ORN, and supernatants were harvested and cytokine production measured by ELISA. Table 2 summarizes the min/max activity and EC50 of ORN for IFN-alpha and TNF-alpha production.

Substance | EC50 (read-out: IFN-alpha EC50) | EC50 (read-out: TNF-alpha EC50) | IFN-alpha max activity | TNF-alpha max activity
C*C*G*A*G*C*C*G*A*T*U*U*C*A*C*C [SEQ ID NO: 78] (CCGAGCCGANUUCACC; Oligoribonucleotide, chemistry of T and the '*' linkage is not given here, further chemistry not given here) | 6 nM | 241 nM | 1609 pg/mL | 20126 pg/mL
C*C*G*A*G*C*C*G*A*T*U*U*C*A*C*C [SEQ ID NO: 79] (CCGAGCCGANUUCACC; Oligoribonucleotide, chemistry of T and the '*' linkage is not given here, further chemistry not given here) | 35 nM | 334 nM | 1152 pg/mL | 17728 pg/mL
C*C*G*A*G*C*C*G*A*T*U*U*U*A*C*C (CCGAGCCGANUUUACC; Oligoribonucleotide, chemistry of T and the '*' linkage is not given here, further chemistry not given here) [SEQ ID NO: 59] | 74 nM | 224 nM | 1714 pg/mL | 26762 pg/mL
C*C*G*A*G*C*C*G*A*U*A*U*U*A*C*C (CCGAGCCGAUAUUACC; listed as RNA, chemistry not fully specified) [SEQ ID NO: 65] | 1130 nM | 77 nM | 335.2 pg/mL | 39377 pg/mL
C*C*G*A*G*C*C*G*A*U*C*U*C*A*C*C (CCGAGCCGAUCUCACC; listed as RNA, chemistry not fully specified) [SEQ ID NO: 69] | 619 nM | 313 nM | 1031 pg/mL | 26915 pg/mL
C*C*G*A*G*C*C*G*A*U*C*U*U*A*C*C (CCGAGCCGAUCUUACC; listed as RNA, chemistry not fully specified) [SEQ ID NO: 64] | 577 nM | 289 nM | 1421 pg/mL | 30712 pg/mL
C*C*G*A*G*C*C*G*A*U*G*U*U*A*C*C (CCGAGCCGAUGUUACC; listed as RNA, chemistry not fully specified) [SEQ ID NO: 66] | 558 nM | 51 nM | 1616 pg/mL | 43098 pg/mL
C*C*G*A*G*C*C*G*A*U*T*U*T*A*C*C (CCGAGCCGAUTUTACC; Oligoribonucleotide, chemistry of T and the '*' linkage is not given here, further chemistry not given here) [SEQ ID NO: 70] | 132 nM | 150 nM | 1702 pg/mL | 44904 pg/mL
C*C*G*A*G*C*C*G*A*U*U*C*T*A*C*C (CCGAGCCGAUUCNACC; Oligoribonucleotide, chemistry of T and the '*' linkage is not given here, further chemistry not given here) [SEQ ID NO: 75] | 1300 nM | 129 nM | 929.9 pg/mL | 27576 pg/mL
C*C*G*A*G*C*C*G*A*U*U*G*A*A*C*C (CCGAGCCGAUUGAACC; listed as RNA, chemistry not fully specified) [SEQ ID NO: 76] | 1540 nM | 109 nM | 448.6 pg/mL | 26371 pg/mL
C*C*G*A*G*C*C*G*A*U*U*G*C*A*C*C (CCGAGCCGAUUGCACC; listed as RNA, chemistry not fully specified) [SEQ ID NO: 74] | 419 nM | 329 nM | 609.1 pg/mL | 30958 pg/mL
C*C*G*A*G*C*C*G*A*U*U*U*A*A*C*C (CCGAGCCGAUUUAACC; listed as RNA, chemistry not fully specified) [SEQ ID NO: 73] | 55 nM | 163 nM | 1395 pg/mL | 31619 pg/mL
C*C*G*A*G*C*C*G*A*U*U*U*C*A*C*C (CCGAGCCGAUUUCACC; listed as RNA, chemistry not fully specified) [SEQ ID NO: 71] | 51 nM | 160 nM | 1626 pg/mL | 45164 pg/mL
C*C*G*A*G*C*C*G*A*U*U*U*T*A*C*C (CCGAGCCGAUUUNACC; Oligoribonucleotide, chemistry of T and the '*' linkage is not given here, further chemistry not given here) [SEQ ID NO: 72] | 75 nM | 146 nM | 1896 pg/mL | 38811 pg/mL
C*C*G*A*G*C*C*G*C*A*A*U*U*C*C*C [SEQ ID NO: 50] (CCGAGCCGCAAUUCCC; listed as RNA, chemistry not fully specified) | 562 nM | 564 nM | 2614 pg/mL | 11141 pg/mL
C*C*G*A*G*C*C*G*C*A*A*U*U*C*C*C [SEQ ID NO: 52] (CCGAGCCGCAAUUCCC; listed as RNA, chemistry not fully specified) | 508 nM | 895 nM | 2263 pg/mL | 11920 pg/mL
C*C*G*A*G*C*C*G*C*A*U*A*A*C*C*C (CCGAGCCGCAUAACCC; listed as RNA, chemistry not fully specified) [SEQ ID NO: 41] | > 2000 nM | 897 nM | 97.97 pg/mL | 10756 pg/mL
C*C*G*A*G*C*C*G*C*A*U*A*C*C*C*C (CCGAGCCGCAUACCCC; listed as RNA, chemistry not fully specified) [SEQ ID NO: 45] | 1700 nM | 754 nM | 98.44 pg/mL | 10491 pg/mL
C*C*G*A*G*C*C*G*C*A*U*A*U*C*C*C (CCGAGCCGCAUAUCCC; listed as RNA, chemistry not fully specified) [SEQ ID NO: 36] | ≥ 1500 nM | 850 nM | 110.4 pg/mL | 18063 pg/mL
C*C*G*A*G*C*C*G*C*A*U*C*C*C*C*C (CCGAGCCGCAUCCCCC; listed as RNA, chemistry not fully specified) [SEQ ID NO: 46] | > 2000 nM | 765 nM | 74.76 pg/mL | 7096 pg/mL
C*C*G*A*G*C*C*G*C*A*U*U*A*C*C*C (CCGAGCCGCAUUACCC; listed as RNA, chemistry not fully specified) [SEQ ID NO: 48] | 750 nM | 801 nM | 543.4 pg/mL | 9988 pg/mL
C*C*G*A*G*C*C*G*C*A*U*U*C*C*C*C (CCGAGCCGCAUUCCCC; listed as RNA, chemistry not fully specified) [SEQ ID NO: 54] | 780 nM | 339 nM | 1233 pg/mL | 12595 pg/mL
C*C*G*A*G*C*C*G*C*C*G*C*C*C*C*C (CCGAGCCGCCGCCCCC; listed as RNA, chemistry not fully specified) [SEQ ID NO: 35] | > 2000 nM |  | 70.6 pg/mL | 2854 pg/mL
C*C*G*A*G*C*C*G*C*C*U*A*A*C*C*C (CCGAGCCGCCUAACCC; listed as RNA, chemistry not fully specified) [SEQ ID NO: 43] | > 2000 nM | 954 nM | 144.3 pg/mL | 10261 pg/mL
C*C*G*A*G*C*C*G*C*C*U*A*C*C*C*C (CCGAGCCGCCUACCCC; listed as RNA, chemistry not fully specified) [SEQ ID NO: 47] | ≥ 1500 nM | 566 nM | 271.9 pg/mL | 14265 pg/mL
C*C*G*A*G*C*C*G*C*U*A*U*A*C*C*C (CCGAGCCGCUAUACCC; listed as RNA, chemistry not fully specified) [SEQ ID NO: 37] | ≥ 1500 nM | 750 nM | 240.5 pg/mL | 22800 pg/mL
C*C*G*A*G*C*C*G*C*U*A*U*C*C*C*C (CCGAGCCGCUAUCCCC; listed as RNA, chemistry not fully specified) [SEQ ID NO: 55] | > 2000 nM | 337 nM | 224.4 pg/mL | 15154 pg/mL

Source: patent US8354522B2, “Immunostimulatory oligoribonucleotides” (Coley Pharmaceutical GmbH, priority 2005, dated 2013)
